# In patent publication US8088727B2, “Method for reducing the risk, lessening the symptom, or delaying the onset of insulin resistance by administering SS-31” (Cornell University, priority 2008, dated 2012):
# Square brackets hold non-standard residues; d marks the D form. Ends that are not written are not given here. Peptide text beside a SMILES is read from it. Dmt = Cc1cc(O)cc(C)c1C[C@H](N)C(=O)O
# Experiments:
# [1] = tested on: intracellular redox environment in skeletal muscle; test: Total glutathione and GSH/GSSG ratio in skeletal muscle of high fat fed rats; type: in vivo, rat
# Protocol: Protein homogenates were prepared by homogenizing 100 mg of powered frozen muscle in a buffer containing in mM: 10 Tris, 1 EDTA, 1 EGTA, 2 NaOrthovanadate, 2 NaPyrophosphate, 5 NaF, protease inhibitor cocktail (Complete) at pH 7.2. After homogenization, 1% Triton X-100 was added to the protein suspension, cotexed and allowed to sit on ice for 5 minutes. The tubes were then spun at 10,000 rpm for 10 minutes to pellet the insoluble debris. For GSSG measurement, tissue was homogenized in a solution containing 20 mM Methyl-2-vinylpyridinium triflate to scavenge all reduced thiols in the sample. Total GSH and GSSG were then measured using the reagents and calibration set provided by the GSH/GSSG assay (Oxis Research) according to the manufacturer's instructions, with small modifications as needed.
# To establish a link between the increased mitochondrial oxidant emission brought about by high fat diet and its effect on overall redox environment of skeletal muscle, both GSH and GSSG were measured in skeletal muscle of chow fed and high fat fed rats under two conditions; after a 10 h fast and 1 h after administration of a standard glucose load (oral gavage, 10 h fasted). […]
# pancreatic islet cells = pancreatic islet cells after transplantation (Thomas et al. 2005); cited from earlier work
# [2] = tested on: hearts subjected to myocardial stunning; conditions: hearts subjected to myocardial stunning (Zhao et al. 2004); cited from earlier work
# fatty (fa/fa) Zucker rat = conditions: SS-31 1.0-5.0 mg/kg i.p. or oral, approximately 6 weeks
# Protocol: Measured outcomes include body weight, fasting glucose/insulin/free fatty acid, glucose tolerance (OGTT), in vitro muscle insulin sensitivity (incubation), markers of insulin signaling (Akt-P, IRS-P), mitochondrial function studies on permeabilized fibers (respiration, H2O2 emission), markers of intracellular oxidative stress (lipid peroxidation, GSH/GSSG ratio, aconitase activity) and mitochondrial enzyme activity. […] Successful prevention of insulin resistance by the aromatic-cationic peptides of the invention is indicated by a reduction in one or more of the markers associated with insulin resistance or mitochondrial dysfunction enumerated above.
# Measured outcomes include body weight, fasting glucose/insulin/free fatty acid, glucose tolerance (OGTT), in vitro muscle insulin sensitivity (incubation), markers of insulin signaling (Akt-P, IRS-P), mitochondrial function studies on permeabilized fibers (respiration, H2O2 emission), markers of intracellular oxidative stress (lipid peroxidation, GSH/GSSG ratio, aconitase activity) and mitochondrial enzyme activity. […] Successful treatment of insulin resistance by the aromatic-cationic peptides of the invention is indicated by a reduction in one or more of the markers associated with insulin resistance or mitochondrial dysfunction enumerated above.
# [3] = tested on: skeletal muscle mitochondrial H2O2 emission of high fat fed rats; test: Mitochondrial H2O2 emission in permeabilized fibers from high fat fed rats given SS-31; type: in vivo, rat; conditions: for increase in mitochondrial oxidant emitting potential: high fat diet (60%) six weeks
# Source text: (§1) Next, rats were placed on a high fat diet (60%) for six weeks with or without daily administration of SS-31.
# [4] = tested on: skeletal muscle mitochondrial respiration of high fat fed rats; test: Mitochondrial respiration in permeabilized fibers from high fat fed rats given SS-31; type: in vivo, rat
# Source text: as §1
# [5] = tested on: mitochondrial H2O2 emission in permeabilized skeletal muscle fiber bundles; test: Mitochondrial H2O2 emission in permeabilized skeletal muscle fiber bundles, SS-31 dose response in vitro; type: cell-based, rat; conditions: dose response curve in vitro (FIG. 3A), succinate-supported respiration
# Protocol: Preparation of permeabilized muscle fiber bundles. Briefly, small portions (25 mg) of soleus, RG, and WG muscle were dissected and placed in ice-cold buffer X, containing 60 mM K-MES, 35 mM KCl, 7.23 mM K2 EGTA, 2.77 mM CaK2EGTA, 20 mM imidazole, 0.5 mM DTT, 20 mM taurine, 5.7 mM ATP, 15 mM PCr, and 6.56 mM MgCl2·6H2O (pH 7.1, 295 mosmol/kg H2O). The muscle was trimmed of connective tissue and cut down to fiber bundles (2×7 mm, 4-8 mg wet wt). With a pair of needle-tipped forceps under a dissecting microscope, fibers were gently separated from one another to maximize surface area of the fiber bundle, leaving only small regions of contact. […]
# Mitochondrial respiration and H2O2 emission measurements. […] Mitochondrial H2O2 emission was measured at 30° C. during state 4 respiration in Buffer Z (10 μg/ml oligomycin) by continuously monitoring oxidation of Amplex Red using a Spex Fluoromax 3 (Jobin Yvon, Ltd.) spectrofluorometer with temperature control and magnetic stirring at >1000 rpm. […] After baseline fluorescence (reactants only) was established, the reaction was initiated by addition of a permeabilized fiber bundle to 300 μl of buffer Z containing 5 μM Amplex Red and 0.5 U/ml HRP, with succinate at […]. […] The rate of respiration is expressed as pmol·s^−1·mg dry weight^−1, and mitochondrial H2O2 emission expressed as pmol·min^−1·mg dry weight^−1. […]
# [6] = tested on: mitochondrial inner membrane; conditions: while scavenging ROS; cited from earlier work
# [7] = tested on: high fat diet-induced insulin resistance; test: Oral glucose tolerance test after six week high fat diet; type: in vivo, rat
# Protocol: To determine whether mitochondrial-derived changes in intracellular redox environment may be linked to the etiology of high fat diet-induced insulin resistance, oral glucose tolerance tests were performed in rats after the six week high fat diet. On the day of experiments, food was removed 10 hr prior to administration of a 2 g/kg glucose solution via gavage. Glucose levels were determined on whole blood samples (Lifescan, Milpitas, Calif.). Serum insulin levels were determined via a rat/mouse ELISA kit (Linco Research, St. Charles, Mo.). Fasting data were used to determine homeostatic model assessment (HOMA)-calculated as fasting insulin (μU/ml) x fasting glucose (mM)/22.5.
# [8] = tested on: animal models of Parkinson's and amyotrophic lateral sclerosis disease; conditions: animal models of Parkinson's and amyotrophic lateral sclerosis disease (Petri et al. 2006; Szeto et al. 2006); cited from earlier work
# Akt = Akt phosphorylation in skeletal muscle after oral glucose load; type: in vivo, rat; conditions: skeletal muscle of high fat fed rats, 1 h after oral glucose load (FIGS. 4E and 4F)
# Protocol: Increased homeostatic model assessment (HOMA, FIG. 4C), and greater area under the curves for both blood glucose and insulin (FIG. 4D) confirmed the development of insulin resistance in high fat fed rats. […] To further assess insulin sensitivity, the phosphorylation state of the insulin signaling protein Akt in skeletal muscle from animals was measured after a 10 h fast or 1 h after receiving an oral glucose load. In response to glucose ingestion, Akt phosphorylation increased ˜5-fold in skeletal muscle of chow-fed controls but was unchanged in high fat fed rats (FIGS. 4E and 4F), confirming the presence of insulin resistance at the level of insulin signaling.
# mu-opioid receptor = mu-opioid receptor (Homo sapiens, UniProt P35372); conditions: cited from earlier work
# [9] = rat, in vivo
# Source text: as §1
# [10] = tested on: several mammalian cell types; conditions: several mammalian cell types (Zhao et al. 2003); cited from earlier work
# mu-opioid receptor, sequence (P35372 whole entry, species assumed): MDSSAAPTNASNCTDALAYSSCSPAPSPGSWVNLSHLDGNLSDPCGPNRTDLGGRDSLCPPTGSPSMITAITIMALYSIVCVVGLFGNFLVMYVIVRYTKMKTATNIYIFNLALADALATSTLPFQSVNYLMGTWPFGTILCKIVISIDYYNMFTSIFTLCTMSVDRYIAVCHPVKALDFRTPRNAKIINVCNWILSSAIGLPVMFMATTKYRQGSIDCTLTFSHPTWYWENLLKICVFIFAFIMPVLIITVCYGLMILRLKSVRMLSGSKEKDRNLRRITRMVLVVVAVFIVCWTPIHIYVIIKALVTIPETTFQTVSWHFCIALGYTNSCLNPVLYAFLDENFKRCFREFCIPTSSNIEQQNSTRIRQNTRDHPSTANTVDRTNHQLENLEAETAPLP
compound,measurement,setting,value
"Cc1cc(O)cc(C)c1C[C@H](NC(=O)[C@H](N)CCCNC(=N)N)C(=O)N[C@@H](CCCCN)C(=O)N[C@@H](Cc1ccccc1)C(N)=O [SS-31, D-Arg-2′6′Dmt-Lys-Phe-NH2] (H-[dR][Dmt]KF-NH2)",GSH/GSSG ratio,"[1]; high fat fed rats, 10 h fast and 1 h after glucose ingestion (FIG. 3H)",preserved the GSH/GSSG ratio near control levels
same,reduction in total cellular glutathione content (GSHT),"[1]; high fat feeding with SS-31 treatment, skeletal muscle (FIG. 3G)",~30%
same,ROS,pancreatic islet cells,effectively reduce ROS
same,ROS,[2],effectively reduce ROS
same,whole body and muscle insulin resistance,fatty (fa/fa) Zucker rat; Zucker rats (~12 weeks of age),ameliorate or reduce
same,development of whole body and muscle insulin resistance,fatty (fa/fa) Zucker rat; young Zucker rats (~3-4 weeks of age),attenuate or prevent
same,reduction in mitochondrial H2O2 emission,"[3]; dose response curve in vivo (FIG. 3B), succinate-supported respiration",greater than 50%
same,increase in mitochondrial oxidant emitting potential,"[3]; palmitoyl-carnitine supported respiration, daily SS-31 (FIG. 3D)",completely prevented
same,increase in mitochondrial oxidant emitting potential,"[3]; succinate supported respiration, daily SS-31 (FIG. 3C)",completely prevented
same,basal rate of respiration,"[4]; palmitoyl-carnitine-supported, high fat fed rats (FIG. 3F)",not affected
same,basal rate of respiration,"[4]; pyruvate/malate-supported, high fat fed rats (FIG. 3E)",not affected
same,reduction in mitochondrial H2O2 emission,[5],greater than 50%
same,effect on membrane potential or respiratory control,[6],without affecting
same,"development of insulin resistance (HOMA, area under the curves for blood glucose and insulin)",[7]; high fat fed rats (FIGS. 4C and 4D),completely blocked
same,blood glucose response to the oral glucose challenge,"[7]; high fat fed rats, 2 g/kg glucose by gavage (FIG. 4A)",normalized
same,insulin response to the oral glucose challenge,"[7]; high fat fed rats, 2 g/kg glucose by gavage (FIG. 4B)",normalized
same,ROS,[8],effectively reduce ROS
same,Akt phosphorylation in response to glucose ingestion,Akt,completely preserved
same,mu-opioid receptor agonist activity,mu-opioid receptor,does not have mu-opioid receptor agonist activity
same,weight gain,[9],did not affect
"2′,6′-Dmt-D-Arg-Phe-Lys-NH2 [SS-02]",penetration of the plasma membrane,[10],readily penetrates
F[dR]FK-NH2 [SS-20],mu-opioid receptor agonist activity,mu-opioid receptor,does not have mu-opioid receptor agonist activity
Tyr-D-Arg-Phe-Lys-NH2 [SS-01],mu-opioid receptor agonist activity,mu-opioid receptor,has mu-opioid receptor agonist activity
